{"source": "patent US20260250290A1", "about": "(BRISTOL-MYERS SQUIBB COMPANY, priority 2023, published 2026)", "data": [{"molecular_target": "T1, SGK1 (Homo sapiens, UniProt O00141)", "T1 sequence (O00141 1-431)": "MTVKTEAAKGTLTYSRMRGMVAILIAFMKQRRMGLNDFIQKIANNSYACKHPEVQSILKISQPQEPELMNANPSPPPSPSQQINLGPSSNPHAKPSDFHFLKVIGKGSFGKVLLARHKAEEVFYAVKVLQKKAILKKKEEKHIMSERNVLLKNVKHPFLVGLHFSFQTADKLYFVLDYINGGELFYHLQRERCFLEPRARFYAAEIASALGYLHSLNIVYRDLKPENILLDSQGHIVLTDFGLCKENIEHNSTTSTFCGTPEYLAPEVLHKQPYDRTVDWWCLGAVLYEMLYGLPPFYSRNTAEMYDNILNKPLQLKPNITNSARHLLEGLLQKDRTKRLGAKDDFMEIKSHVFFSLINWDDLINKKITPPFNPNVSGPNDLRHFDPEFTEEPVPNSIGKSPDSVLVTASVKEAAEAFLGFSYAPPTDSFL", "assay": "SGK1 inhibition Assay B (Echo mass spectrometry of phosphorylated peptide product)", "type": "biochemical", "conditions": "60 min at room temperature", "units": {"IC50": "nM"}, "values": [{"molecule": "Cc1nc(O[C@H]2CC[C@@H](N(C)C)CC2)c(C(=O)N[C@@H]2CCCN(c3cc(-c4ccc(C(N)=O)c(F)c4)n4ncnc(N)c34)C2)s1", "note": "[Example 937, N—((R)-1-(4-Amino-7-(4-carbamoyl-3-fluorophenyl)pyrrolo[2,1-f][1,2,4]triazin-5-yl)piperidin-3-yl)-4-(((1s,4S)-4-(dimethylamino)cyclohexyl)oxy)-2-methylthiazole-5-carboxamide]", "IC50": 1}, {"molecule": "Cc1nc(O[C@H]2CC[C@@H](NC(C)C)C2)c(C(=O)N[C@@H]2CCCN(c3cc(-c4ccc(C(N)=O)c(F)c4)n4ncnc(N)c34)C2)s1", "note": "[Example 940, N—((R)-1-(4-Amino-7-(4-carbamoyl-3-fluorophenyl)pyrrolo[2,1-f][1,2,4]triazin-5-yl)piperidin-3-yl)-4-(((1S,3R)-3-(isopropylamino)cyclopentyl)oxy)-2-methylthiazole-5-carboxamide]", "IC50": 3}, {"molecule": "Cc1nc(OC2CCCC(NC(C)C)CCC2)c(C(=O)N[C@@H]2CCCN(c3cc(-c4ccc(C(N)=O)c(F)c4)n4ncnc(N)c34)C2)s1", "note": "(stereo partly drawn) [Example 942, (R)—N-(1-(4-Amino-7-(4-carbamoyl-3-fluorophenyl)pyrrolo[2,1-f][1,2,4]triazin-5-yl)piperidin-3-yl)-4-((5-(isopropylamino)cyclooctyl)oxy)-2-methylthiazole-5-carboxamide]", "IC50": 4}, {"molecule": "CN(C)C1CC2(CC(Oc3cc(Cl)sc3C(=O)N[C@@H]3CCCN(c4cc(-c5ccc(C(N)=O)c(F)c5)n5ncnc(N)c45)C3)C2)C1", "note": "(stereo partly drawn) [Example 944, (R)—N-(1-(4-Amino-7-(4-carbamoyl-3-fluorophenyl)pyrrolo[2,1-f][1,2,4]triazin-5-yl)piperidin-3-yl)-5-chloro-3-((6-(dimethylamino)spiro[3.3]heptan-2-yl)oxy)thiophene-2-carboxamide]", "IC50": 1}, {"molecule": "Cc1nc(O[C@H]2CC[C@@H](CNCC(C)(C)C)CC2)c(C(=O)N[C@@H]2CCCN(c3cc(-c4ccc(C(N)=O)c(F)c4)n4ncnc(N)c34)C2)s1", "note": "[Example 945, N—((R)-1-(4-Amino-7-(4-carbamoyl-3-fluorophenyl)pyrrolo[2,1-f][1,2,4]triazin-5-yl)piperidin-3-yl)-2-methyl-4-(((cis)-4-((neopentylamino)methyl)cyclohexyl)oxy)thiazole-5-carboxamide]", "IC50": 4}, {"molecule": "CCN1CC[C@@H](Oc2cc(C(F)F)sc2C(=O)N[C@@H]2CCCN(c3cc(-c4ccc(C(N)=O)c(F)c4)n4ncnc(N)c34)C2)CC1(C)C", "note": "[Example 947, N—((R)-1-(4-amino-7-(4-carbamoyl-3-fluorophenyl)pyrrolo[2,1-f][1,2,4]triazin-5-yl)piperidin-3-yl)-5-(difluoromethyl)-3-(((R)-1-ethyl-2,2-dimethylpiperidin-4-yl)oxy)thiophene-2-carboxamide]", "IC50": 1}, {"molecule": "N#Cc1ccc(-c2cc(N3CCC[C@@H](NC(=O)c4sc(Cl)cc4O[C@@H]4CN5CCC4CC5)C3)c3c(N)ncnn23)cn1", "note": "[Example 950, N—((R)-1-(4-Amino-7-(6-cyanopyridin-3-yl)pyrrolo[2,1-f][1,2,4]triazin-5-yl)piperidin-3-yl)-5-chloro-3-(((S)-quinuclidin-3-yl)oxy)thiophene-2-carboxamide]", "IC50": 0.6}, {"molecule": "CC(C)c1nc(O[C@@H]2C[C@H]3CC[C@@H](C2)N3C)c(C(=O)N[C@@H]2CCCN(c3cc(-c4ccc(=O)n(CC(F)F)c4)n4ncnc(N)c34)C2)s1", "note": "[Example 951, N—((R)-1-(4-Amino-7-(1-(2,2-difluoroethyl)-6-oxo-1,6-dihydropyridin-3-yl)pyrrolo[2,1-f][1,2,4]triazin-5-yl)piperidin-3-yl)-2-isopropyl-4-(((1R,3s,5S)-8-methyl-8-azabicyclo[3.2.1]octan-3-yl)oxy)thiazole-5-carboxamide]", "IC50": 3}, {"molecule": "Cc1nc(OC2CC3(CCN(C)CC3)C2)c(C(=O)N[C@@H]2CCCN(c3cc(-c4ccc(C#N)nc4)n4ncnc(N)c34)C2)s1", "note": "[Example 955, (R)—N-(1-(4-amino-7-(6-cyanopyridin-3-yl)pyrrolo[2,1-f][1,2,4]triazin-5-yl)piperidin-3-yl)-2-methyl-4-((7-methyl-7-azaspiro[3.5]nonan-2-yl)oxy)thiazole-5-carboxamide]", "IC50": 17}, {"molecule": "Cc1nc(O[C@@H]2C[C@H]3CC[C@@H](C2)N3C(C)C)c(C(=O)N[C@@H]2CCCN(c3cc(-c4ccc(C(N)=O)c(OCC(F)F)n4)n4ncnc(N)c34)C2)s1", "note": "[Example 956, N—((R)-1-(4-Amino-7-(5-carbamoyl-6-(2,2-difluoroethoxy)pyridin-2-yl)pyrrolo[2,1-f][1,2,4]triazin-5-yl)piperidin-3-yl)-4-(((1R,3s,5S)-8-isopropyl-8-azabicyclo[3.2.1]octan-3-yl)oxy)-2-methylthiazole-5-carboxamide]", "IC50": 2}, {"molecule": "CC(=O)N1CC=C(c2cc(N3CCC[C@@H](NC(=O)c4nc(OC5CCNCC5)c(C)s4)C3)c3c(N)ncnn23)C1", "note": "[Example 957, (R)—N-(1-(7-(1-acetyl-2,5-dihydro-1H-pyrrol-3-yl)-4-aminopyrrolo[2,1-f][1,2,4]triazin-5-yl)piperidin-3-yl)-5-methyl-4-(piperidin-4-yloxy)thiazole-2-carboxamide]", "IC50": 0.6}, {"molecule": "CC(=O)N1CC=C(c2cc(N3CCC[C@@H](NC(=O)c4sc(Cl)cc4OC4C[C@@H]5CN(C)C[C@@H]5C4)C3)c3c(N)ncnn23)C1", "note": "(stereo partly drawn) [Example 958, N—((R)-1-(7-(1-acetyl-2,5-dihydro-1H-pyrrol-3-yl)-4-aminopyrrolo[2,1-f][1,2,4]triazin-5-yl)piperidin-3-yl)-5-chloro-3-(((3aR,6aS)-2-methyloctahydrocyclopenta[c]pyrrol-5-yl)oxy) thiophene-2-carboxamide]", "IC50": 2}, {"molecule": "CC(C)N1CC2CC(Oc3cc(Cl)sc3C(=O)N[C@@H]3CCCN(c4cc(-c5ccc(-n6cnnn6)nc5)n5ncnc(N)c45)C3)CC2C1", "note": "(stereo partly drawn) [Example 959, N—((R)-1-(7-(6-(1H-tetrazol-1-yl)pyridin-3-yl)-4-aminopyrrolo[2,1-f][1,2,4]triazin-5-yl)piperidin-3-yl)-5-chloro-3-(((3aR,6aS)-2-isopropyloctahydrocyclopenta[c]pyrrol-5-yl)oxy) thiophene-2-carboxamide]", "IC50": 2}, {"molecule": "Cc1nc(O[C@@H]2C[C@H]3CC[C@@H](C2)N3CCO)c(C(=O)N[C@@H]2CCCN(c3cc(-c4ccc(-n5cnnn5)c(F)c4)n4ncnc(N)c34)C2)s1", "note": "[Example 960, N—((R)-1-(4-amino-7-(3-fluoro-4-(1H-tetrazol-1-yl)phenyl)pyrrolo[2,1-f][1,2,4]triazin-5-yl)piperidin-3-yl)-4-(((1R,3s,5S)-8-(2-hydroxyethyl)-8-azabicyclo [3.2.1]octan-3-yl)oxy)-2-methylthiazole-5-carboxamide]", "IC50": 1}, {"molecule": "Cc1nc(O[C@@H]2C[C@H]3CC[C@@H](C2)N3C)c(C(=O)N[C@@H]2CCCN(c3cc(-c4ccc5c(c4)CNC5=O)n4ncnc(N)c34)C2)s1", "note": "[Example 961, N-((R)-1-(4-amino-7-(1-oxoisoindolin-5-y1)pyrrolo[2,1-f][1,2,4]triazin-5-y1)piperidin-3-y1)-2-methy1-4-(((IR,3s,5S)-8-methyl-8-azabicyclo[3.2.1]octan-3-yl)oxy)thiazole-5-carboxamide]", "IC50": 5}, {"molecule": "Cc1nc(O[C@@H]2C[C@H]3CC[C@@H](C2)N3C)c(C(=O)N[C@@H]2CCCN(c3cc(-c4ccc(-n5cnnn5)nc4)n4ncnc(N)c34)C2)s1", "note": "[Example 963, N-((R)-1-(7-(6-(1/-tetrazol-1-y1)pyridin-3-y1)-4-aminopyrrolo[2,1-1][1,2,4]triazin-5-y1)piperidin-3-y1)-2-methyl-4-(((IR,35,5S)-8-methy1-8-azabicyclo[3.2 1]octan-3-yl)oxy)thiazole-5-carboxamide]", "IC50": 3}, {"molecule": "CCN1C2CCC1CC(Oc1nc(C)sc1C(=O)NC1CCCN(c3cc(-c4ccc(C#N)nc4)n4ncnc(N)c34)C1)C2", "note": "[Example 964, N-((R)-1-(4-amino-7-(6-cyanopyridin-3-yl)pyrrolo[2,1-f][1,2,4]triazin-5-y1)piperidin-3-y1)-4-(((1R,3s,5S)-8-ethyl-8-azabicyclo[3.2.]]octan-3-y])oxy)-2-methylthiazole-5-carboxamide]", "IC50": 46}, {"molecule": "Cc1nc(OC2CC(C)(C)N(C)C(C)(C)C2)c(C(=O)N[C@@H]2CCCN(c3cc(-c4ccc(-n5cnnn5)c(F)c4)n4ncnc(N)c34)C2)s1", "note": "[Example 965, (R)—N-(1-(4-amino-7-(3-fluoro-4-(1H-tetrazol-1-yl)phenyl)pyrrolo[2,1-f][1,2,4]triazin-5-yl)piperidin-3-yl)-2-methyl-4-((1,2,2,6,6-pentamethylpiperidin-4-yl)oxy) thiazole-5-carboxamide]", "IC50": 3}, {"molecule": "Cc1nc(O[C@@H]2C[C@H]3CC[C@@H](C2)N3)c(C(=O)N[C@@H]2CCCN(c3cc(-c4ccc5c(c4)OCCNC5=O)n4ncnc(N)c34)C2)s1", "note": "[Example 966, 4-(((1R,3s,5S)-8-azabicyclo [3.2.1]octan-3-yl)oxy)-N—((R)-1-(4-amino-7-(5-oxo-2,3,4,5-tetrahydrobenzo[f][1,4]oxazepin-8-yl)pyrrolo[2,1-f][1,2,4]triazin-5-yl)piperidin-3-yl)-2-methylthiazole-5-carboxamide]", "IC50": 8}, {"molecule": "CC(C)N1[C@@H]2CCC[C@H]1C[C@H](Oc1cc(Cl)sc1C(=O)N[C@@H]1CCCN(c3cc(-c4cc(F)c(=O)n(CC(F)F)c4)n4ncnc(N)c34)C1)C2", "note": "[Example 968, N—((R)-1-(4-amino-7-(1-(2,2-difluoroethyl)-5-fluoro-6-oxo-1,6-dihydropyridin-3-yl)pyrrolo[2,1-f][1,2,4]triazin-5-yl)piperidin-3-yl)-5-chloro-3-(((1R,3s,5S)-9-isopropyl-9-azabicyclo[3.3.1]nonan-3-yl)oxy)thiophene-2-carboxamide]", "IC50": 2}]}]}
